The text below walks through data of patent US8017612B2, “Piperazine compound and use thereof as a HCV polymerase inhibitor” (priority 2006, dated 2011).

Assay [1] addresses T1, HCV polymerase (NS5B) type 1b (Hepatitis C virus genotype 1b, UniProt P26663).
T1 construct: a region encoding NS5B (J Virol 1991 March, 65(3), 1105-13, 544 amino acids after deletion of 47 amino acids on the C-terminal); 6xHis (C); made in house; host or cells: Escherichia coli
As to the kind of experiment: Assay of enzyme (HCV polymerase) inhibitory activity, type 1b enzyme. It is filed as biochemical, HCV BK strain (type 1b). The note with it: HCV polymerase inhibitory activity IC50, 1b, type 1b enzyme. The essentials:
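Polymerase activity was followed as radiolabelled UTP incorporation by E. coli-expressed, His-tagged NS5B of HCV type 1b lacking its last 47 residues. Conditions: 2 μM UTP, 50 μM other NTPs, Mg2+ buffer at pH 7.5, 25 °C for 60 min. Inhibition relative to compound-free reactions gave IC50.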

Assay [2] has as its target T2, HCV polymerase (NS5B) type 1a (Hepatitis C virus genotype 1a, UniProt P26664).
T2 construct: made in house; host or cells: Escherichia coli (by the 'similar method' of the 1b enzyme)
The assay can be described thus: Assay of enzyme (HCV polymerase) inhibitory activity, type 1a enzyme. It is filed as biochemical, HCV type 1a (cloned from the blood of patients). The settings on record: HCV polymerase inhibitory activity IC50, 1a, type 1a enzyme. The essentials: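 IC50 values derive from radioactivity of newly synthesized RNA with versus without test compound. The enzyme was C-terminally truncated type 1a NS5B, 1.5 μg/ml, run 60 min at 25° C with 3H-UTP-labelled nucleotides.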

The term IC50 denotes the midpoint of a concentration-inhibition curve. In the case of `CCCc1ccc(CNC(=O)[C@H]2CN(c3cnc(C(=O)O)cn3)CCN2S(=O)(=O)c2ccc(-c3ccccc3)cc2)cc1` [Example 701, (R)-4-(biphenyl-4-sulfonyl)-3-(4-propyl-benzylcarbamoyl)-3,4,5,6-tetrahydro-2H-[1,2′]bipyrazinyl-5′-carboxylic acid], the IC50 in assay [1] and in assay [2] was less than 100 nM throughout.

`CC(=O)N1CCN(S(=O)(=O)c2ccc(OC(F)(F)F)cc2)[C@@H](C(=O)NCc2ccc(CCCO)cc2)C1` [Example 702, (R)-4-acetyl-1-(4-trifluoromethoxy-benzenesulfonyl)-piperazine-2-carboxylic acid 4-(3-hydroxy-propyl)-benzylamide]: the IC50 in assay [1] and in assay [2] was greater than 1000 nM throughout.

`CCCn1cc(CNC(=O)[C@H]2CN(C(C)=O)CCN2S(=O)(=O)c2ccc(OC(F)(F)F)cc2)cn1` [Example 703, (R)-4-acetyl-1-(4-trifluoromethoxy-benzenesulfonyl)-piperazine-2-carboxylic acid (1-propyl-1H-pyrazol-4-ylmethyl)-amide]: the IC50 in assay [1] and in assay [2] was greater than 1000 nM throughout.

As to `CCC(F)(F)c1ccc(CNC(=O)[C@H]2CN(C3=NC(=O)CS3)CCN2S(=O)(=O)c2ccc(OC(F)(F)F)cc2)cc1` [Example 704, (R)-4-(4-oxo-4,5-dihydro-thiazol-2-yl)-1-(4-trifluoromethoxy-benzenesulfonyl)-piperazine-2-carboxylic acid 4-(1,1-difluoro-propyl)-benzylamide], the IC50 in assay [1] and in assay [2] was less than 100 nM throughout.

Turning to `CCC(F)(F)c1ccc(CNC(=O)[C@H]2CN(C(=O)N3CC(C(=O)O)C3)CCN2S(=O)(=O)c2ccc(OC(F)(F)F)cc2)cc1` [Example 705, 1-[(R)-3-[4-(1,1-difluoro-propyl)-benzylcarbamoyl]-4-(4-trifluoromethoxy-benzenesulfonyl)-piperazine-1-carbonyl]-azetidine-3-carboxylic acid], the IC50 in assay [1] and in assay [2] was greater than 1000 nM throughout.

`CCC(F)(F)c1ccc(CNC(=O)[C@H]2CN(C(=O)N3CCC(C(=O)O)CC3)CCN2S(=O)(=O)c2ccc(OC(F)(F)F)cc2)cc1` [Example 706, 1-[(R)-3-[4-(1,1-difluoro-propyl)-benzylcarbamoyl]-4-(4-trifluoromethoxy-benzenesulfonyl)-piperazine-1-carbonyl]-piperidine-4-carboxylic acid]: the IC50 in assay [1] and in assay [2] was greater than 1000 nM in each case.

Regarding `CCC(F)(F)c1ccc(CNC(=O)[C@H]2CN(c3cnc4ncncc4n3)CCN2S(=O)(=O)c2ccc(OC(F)(F)F)cc2)cc1` [Example 707, (R)-4-pteridin-6-yl-1-(4-trifluoromethoxy-benzenesulfonyl)-piperazine-2-carboxylic acid 4-(1,1-difluoro-propyl)-benzylamide], the IC50 in assay [1] and in assay [2] was less than 100 nM throughout.

As to `CCC(F)(F)c1ccc(CNC(=O)[C@H]2CN(c3cnc4cncnc4n3)CCN2S(=O)(=O)c2ccc(I)cc2)cc1` [Example 708, (R)-1-(4-iodo-benzenesulfonyl)-4-pteridin-7-yl-piperazine-2-carboxylic acid 4-(1,1-difluoro-propyl)-benzylamide], the IC50 in assay [1] and in assay [2] was less than 100 nM in each case.

With `CCC(F)(F)c1ccc(CNC(=O)[C@H]2CN(c3cnc4cncnc4n3)CCN2S(=O)(=O)c2ccc(-c3cccs3)cc2)cc1` [Example 709, (R)-4-pteridin-7-yl-1-(4-thiophen-2-yl-benzenesulfonyl)-piperazine-2-carboxylic acid 4-(1,1-difluoro-propyl)-benzylamide], the IC50 in assay [1] and in assay [2] was less than 100 nM in each case.

Regarding `CCOC(=O)c1ccc2ncc(N3CCN(S(=O)(=O)c4ccc(OC(F)(F)F)cc4)[C@@H](C(=O)NCc4ccc(C(F)(F)CC)cc4)C3)nc2c1` [Example 710, 3-[(R)-3-[4-(1,1-difluoro-propyl)-benzylcarbamoyl]-4-(4-trifluoromethoxy-benzenesulfonyl)-piperazin-1-yl]-quinoxaline-6-carboxylic acid ethyl ester], the IC50 in assay [1] and in assay [2] was 100 to 1000 nM each time.

With `CCC(F)(F)c1ccc(CNC(=O)[C@H]2CN(c3cnc4ccc(C(=O)O)cc4n3)CCN2S(=O)(=O)c2ccc(OC(F)(F)F)cc2)cc1` [Example 711, 3-[(R)-3-[4-(1,1-difluoro-propyl)-benzylcarbamoyl]-4-(4-trifluoromethoxy-benzenesulfonyl)-piperazin-1-yl]-quinoxaline-6-carboxylic acid], the IC50 in assay [1] is less than 100 nM; in assay [2], 100 to 1000 nM.

Regarding `CCC(F)(F)c1ccc(CNC(=O)[C@H]2CN(c3cnc4cc(C(=O)O)ccc4n3)CCN2S(=O)(=O)c2ccc(OC(F)(F)F)cc2)cc1` [Example 712, 2-[(R)-3-[4-(1,1-difluoro-propyl)-benzylcarbamoyl]-4-(4-trifluoromethoxy-benzenesulfonyl)-piperazin-1-yl]-quinoxaline-6-carboxylic acid], the IC50 in assay [1] and in assay [2] was less than 100 nM each time.

In the case of `CCC(F)(F)c1ccc(CNC(=O)[C@H]2CN(c3cnc4cnccc4n3)CCN2S(=O)(=O)c2ccc(Cl)cc2)cc1` [Example 713, (R)-1-(4-chloro-benzenesulfonyl)-4-pyrido[3,4-b]pyrazin-2-yl-piperazine-2-carboxylic acid 4-(1,1-difluoro-propyl)-benzylamide], the IC50 in assay [1] and in assay [2] was less than 100 nM throughout.

As to `CCC(F)(F)c1ccc(CNC(=O)[C@H]2CN(c3cnc4cnccc4n3)CCN2S(=O)(=O)c2ccc(C(C)(C)C)cc2)cc1` [Example 714, (R)-1-(4-tert-butyl-benzenesulfonyl)-4-pyrido[3,4-b]pyrazin-2-yl-piperazine-2-carboxylic acid 4-(1,1-difluoro-propyl)-benzylamide], the IC50 in assay [1] and in assay [2] was less than 100 nM each time.

With `CCC(F)(F)c1ccc(CNC(=O)[C@H]2CN(c3nc4ccncc4s3)CCN2S(=O)(=O)c2ccc(OC(F)(F)F)cc2)cc1` [Example 715, (R)-4-thiazolo[5,4-c]pyridin-2-yl-1-(4-trifluoromethoxy-benzenesulfonyl)-piperazine-2-carboxylic acid 4-(1,1-difluoro-propyl)-benzylamide], the IC50 in assay [1] and in assay [2] was less than 100 nM throughout.

`CC(=O)N1CCN(S(=O)(=O)c2ccc(OC(F)(F)F)cc2)[C@@H](C(=O)NCCCc2cccc(O)c2)C1` [Example 716, (R)-4-acetyl-1-(4-trifluoromethoxy-benzenesulfonyl)-piperazine-2-carboxylic acid [3-(3-hydroxy-phenyl)-propyl]-amide]: the 50% inhibitory concentration (IC50) in assay [1] and in assay [2] was greater than 1000 nM in each case.

Regarding `CC(=O)N1CCN(S(=O)(=O)c2ccc(OC(F)(F)F)cc2)[C@@H](C(=O)NCCCc2ccc(O)cc2)C1` [Example 717, (R)-4-acetyl-1-(4-trifluoromethoxy-benzenesulfonyl)-piperazine-2-carboxylic acid [3-(4-hydroxy-phenyl)-propyl]-amide], the IC50 in assay [1] and in assay [2] was greater than 1000 nM in each case.

As to `CCCc1ccc(CNC(=O)[C@H]2CN(C(C)=O)CCN2S(=O)(=O)c2ccc(OC(F)(F)F)cc2)cn1` [Example 718, (R)-4-acetyl-1-(4-trifluoromethoxy-benzenesulfonyl)-piperazine-2-carboxylic acid (6-propyl-pyridin-3-ylmethyl)-amide], the IC50 in assay [1] was 100 to 1000 nM; in assay [2] it was greater than 1000 nM.
